SMILES strings stand for the structures. Bounds are passed on as bounds.

In general, melting point refers to the temperature, or range, at which the solid turns liquid.

Consider `O=C(Nc1ccc2ccc(Cl)nc2n1)c1ccc(F)cc1`, for which the melting point worked out at 236 °C.
In turn, `N#CC(C(=O)c1ccc(Cl)cc1)=C1CCCN1` returned a melting point of 156 to 158 °C.
`Cc1nc2cc(Nc3ncc4ccc(-c5cccc(S(=O)(=O)NC(C)(C)C)c5)n4n3)ccc2o1` registered a melting point of 212 to 214 °C.
In turn, `Cc1ccc(CSc2nc3cc4c(cc3[nH]2)CCC4)nc1` showed a melting point of 157 to 158 °C.
In the case of `Cc1nc(C(=O)NN(C)C)c2n1-c1ccc(Cl)cc1C(c1ccccc1F)NC2` (centres undefined) it was 218 to 219 °C; in that of `COC(=O)c1cc(C(=O)Cl)cc([N+](=O)[O-])c1`, 66 to 68 °C; in that of `COc1cc(C(=O)O)ccc1OC(=O)c1ccc(OC)c(C23CC4CC(CC(C4)C2)C3)c1`, 282 to 284 °C.
In the case of `CCCCOc1ccc(-c2ncc(C(=O)OCC)c(Cl)n2)cc1` it was 79 °C.
Take `O=[N+]([O-])C=C(NCCCCc1nc[nH]c1Br)NCCCCc1nc[nH]c1Br`: the melting point lay in the range of 198 to 200 °C.
`O=c1[nH]c(=O)n(Cc2ccc(Oc3ccc(Cn4oc(=O)[nH]c4=O)cc3)cc2)o1` registered a melting point of 175 to 178 °C.
`C=C(C)C(=O)NC(=O)NCc1ccccc1` showed a melting point of 96 to 98 °C.
Take `CCOC(=O)c1cnc2cc([N+](=O)[O-])ccc2n1`: the melting point lay in the range of 221 to 223 °C.
With `CN(C)c1ccc(C2=NC[C@@H](OC(=O)Nc3ccccc3)[C@H](c3ccccc3)O2)cc1` (racemic), the melting point came to 172 °C.
For `O=[N+]([O-])c1cc(N2CCNCC2)ccc1S(=O)(=O)c1ccccc1`, the melting point lay in the range of 180 to 182 °C.
The same measure for `CC(C)(C)c1ccc(O)c(CO)c1`: 65 to 85 °C; for `CCN1CC(=O)Nc2cc(Nc3ncc(Cl)c(Nc4ccccc4S(=O)(=O)C(C)C)n3)c(OC)cc2C1`: 175 °C.
In the case of `CCC1(CC)CSSC[C@@H](C(=O)O)NC1=O`, the melting point lay within 127 to 128 °C.
Consider `O=C1CCOC(N2CCN=C(c3ccccc3Cl)c3cc(Cl)ccc32)=N1`, for which the melting point lay in the range of 124 to 135 °C.
For `CC1(C)N=C(n2ccc(O)cc2=O)c2cc(Br)ccc2O1`, the melting point was 171 to 172 °C.
`Cc1cc(SC2=C(O)CC(CCc3ccc(O)cc3)(C3CCCCC3)OC2=O)c(C(C)(C)C)cc1OS(=O)(=O)c1ccc(C#N)cc1` (centres undefined) registered a melting point of 112 °C.
The compound `Cc1ccc(S(=O)(=O)OCCC2COc3ccccc3O2)cc1` (centres undefined) came in with a melting point of 82 to 83 °C.
In the case of `Cc1nc(N(C)c2ccc(Cl)cc2)sc1-c1ccnc(Nc2ccc(N3CCOCC3)cc2)n1` it was 245 to 246 °C.
For the compound `COc1cccc(C=C2NC(=O)NC2=O)c1OCc1ccccc1`, the melting point was 210 to 212 °C.
`COC(c1ccccc1)c1cc(C(F)(F)F)nc2c(C(F)(F)F)cccc12` (centres undefined) displayed a melting point of 115 to 117 °C.
The same measure for `O=C1CN(C(=O)COc2cc(-c3ccccc3)nc3ccccc23)CCN1`: 215 °C; for `COCc1nc(OC)c(NS(=O)(=O)c2cccc(Cl)c2Cl)nc1Cl`: 193 to 196 °C; for `CCc1nc2c(N)nc3ccccc3c2n1CCCCNC(=O)Nc1ccccc1`: 180 to 181 °C.
For the compound `Clc1ccc2c(c1)C(c1ccccc1)=NCc1nnc(CNC3CC3)n1-2`, the melting point lay within 164 to 169 °C.
In the case of `CON=C(c1ccccc1OCc1ccc(Cl)cc1)n1ccnc1` it was 92.5 to 93.5 °C; in that of `CC(C)(O)Cn1cnc2c(N)nc3ccccc3c21`, 270 to 272 °C; in that of `COc1cc2c(cc1OC)C(C=Cc1ccc(Cl)c(Cl)c1)=NNC(C)C2` (centres undefined), 132 to 133 °C.
The same measure for `O=C(NCCCCC1CCSS1)NN1CCCCC1` (centres undefined): 67 to 69 °C; for `O=C1CCC(N2C(=O)c3ccc(CNC(=O)Nc4ccccc4)cc3C2=O)C(=O)N1` (centres undefined): 288 to 290 °C; for `CCCCc1nc(C(=O)OC)c(C(=O)OC)[nH]1`: 88 °C.
Consider `CN(C)C(=O)C(=O)N1CN(C(=O)c2c(F)cccc2F)C(=O)N(c2ccc(Oc3ccc(C(F)(F)F)cc3Cl)cc2F)C1`, for which the melting point was in the range of 98 to 100 °C.
In the case of `C=CCn1c(C)nc2c3c(c(C(=O)OCC)cc21)CCC1(Cc2ccccc2C1)N3` it was 150 °C.
With `CNC(=O)C(=NO)c1ccccc1CO`, the melting point lay within 128 to 131 °C.
Regarding `COc1ccc(C(=O)Nc2ccccc2)cc1NC(=S)Nc1cccc(C(C)=O)c1`, the melting point lay within 176 to 177 °C.
`O=CC1CCC(C2CC[Si](c3ccccc3)(c3ccccc3)CC2)CC1` (centres undefined): the melting point worked out at 107 °C.
Consider `Cc1cccc(-c2[nH]c(C(C)C)nc2-c2cccc(-c3ccoc3)c2)n1`, for which the melting point lay in the range of 74 to 78 °C.
Regarding `CCCc1ccc2nc(Cl)cn2n1`, the melting point is 73.9 to 80 °C.
In turn, `O=c1[nH]c2ccccc2c(=O)n1CCCN1CCC(OC(c2ccccc2)c2ccccc2)CC1` displayed a melting point of 173 to 175 °C.
With `CCOC(=O)NCCc1ccccc1`, the melting point is 47 to 48 °C.
Compound `CCCc1nc2c(N)nc3ccc(-c4cccc(CO)c4)cc3c2s1` showed a melting point of 176 to 177 °C.
The same measure for `CC(C)(C)c1ccc(NC(=O)c2ccc(C3(C)OCCCO3)cc2)cc1`: 148 to 149 °C.
With `CC1(C)CCC(C)(C)c2c(OCc3ccc(F)cc3)cc(C(O)C#Cc3ccc(C(=O)O)cc3)cc21` (centres undefined), the melting point was 188 °C.
Consider `CCCC(=O)Nc1cnc2cccnc2c1O`, for which the melting point is over 360 °C.
The same measure for `CCC1Cc2cc(OCC(=O)O)c(Cl)c(Cl)c2C1=O` (centres undefined): 171 to 172 °C.
As for `COC(=O)c1c(-c2ccc(F)cc2)nc(N)nc1C(C)C`, the melting point is 146 to 147 °C.
In turn, `CCCCCCCOC1CCC(=O)N1` (centres undefined) had a melting point of 52 to 54 °C.
Regarding `CN(C)C=NC(=S)NC1CCN(C(=O)OC(C)(C)C)CC1`, the melting point stood at 170 °C.
`CC(=O)Nc1cc2c(cc1[N+](=O)[O-])OC(C)(C)C1OC21` (centres undefined) gave a melting point of 156 to 158 °C.
`CC(C#CC1CCCC1)N(O)C(N)=O` (centres undefined) displayed a melting point of 140 to 141 °C.
`CC(C)(C)NC(=O)OC1OCN(c2cccc(C(F)(F)F)c2)C1=O` (centres undefined) registered a melting point of 125 to 126 °C.
In the case of `Cc1nnc2n1-c1sc(C#CCn3c(=O)c4c(ncn4C)n(C)c3=O)cc1C(c1ccccc1Cl)=NC2` it was 277 to 280 °C; in that of `CCCCCCCCCCC(=O)Nc1ccn(C2OC(CO)C(O)C2O)c(=O)n1` (centres undefined), 146 to 150 °C; in that of `COc1ccc(CSCC2NC(=O)C2NC(=O)OC(C)(C)C)cc1` (centres undefined), 120 to 123 °C.
Take `CON(C)S(=O)(=O)c1ccccc1N`: the melting point came out at 50 °C.
In turn, `COc1cccc2c1CC=CC2` had a melting point of 44.3 to 45 °C.
Turning to `CCCN(CCC)C1CCc2cc(NC(C)=O)ccc2C1` (centres undefined), the melting point was 119 to 121 °C.
In the case of `Cc1nnc(-c2ccc3occ(-c4ccc(S(=O)C(C)C)cc4)c3c2)o1` (centres undefined) it was 157 to 158 °C; in that of `O=S(=O)(CC1CCCCN1S(=O)(=O)c1ccccc1)c1ccc(Cl)cc1` (centres undefined), 129 to 131 °C.
For the compound `COc1cc2c(cc1OC)C(c1sc(N)nc1C)=NCC2`, the melting point lay in the range of 233 to 237 °C.
The compound `Nc1cc(OCc2ccccc2)c(OCc2ccccc2)cn1` had a melting point of 111 to 113 °C.
The compound `CCOc1c(Cl)ccc(-c2cc(N)c(Cl)c(C(=O)OC)n2)c1F` displayed a melting point of 154 to 156 °C.
In the case of `Cc1cc(C)c(C)c(COc2cccc(-c3coc(C(=O)NNC(=O)c4ccc(O)c(C#N)c4)c3-c3ccccc3)c2)c1C` it was 242 to 247 °C; in that of `C#CCOc1cc(-n2ncc(=O)n(C)c2=O)c(Cl)cc1Cl`, 119 to 120 °C.
Turning to `CCN(CC)CCc1ccc2[nH]c(C)c(C(=O)O[C@@H](C)c3ccccc3)c2c1`, the melting point was 95 to 97 °C.
`c1csc(-c2nc(COc3ccc(CCCn4ccnc4)cc3)co2)c1` displayed a melting point of 84 to 85 °C.
With `CCNC1=C(c2ccc(O)cc2)C(=O)c2cc(O)ccc21`, the melting point was found to be 250 °C.
In turn, `O=C1CCCc2nc3ccccc3c(NCCCC(c3ccccc3)c3ccccc3)c21` displayed a melting point of 86 to 88 °C.
In turn, `Cc1ccccc1N1CCN(S(=O)(=O)CC23CCC(CC2=NO)C3(C)C)CC1` (centres undefined) gave a melting point of 174 to 175 °C.
The same measure for `CCn1nc(-c2ccc(OC)cc2)cc(C(=O)OC)c1=O`: 76.5 to 77.6 °C; for `O=C1NCN=C(c2ccccc2)c2ccccc21`: 215 °C.
Turning to `CCCN(CCC)C(=O)CNc1nc(-c2ccccc2)ncc1CO`, the melting point fell in the range of 167 to 168 °C.
The compound `CCOC(=O)c1cnc2c(F)c(F)ccc2c1Cl` had a melting point of 114 °C.
`COc1ccnc(CCc2nc3cc(-c4ccc(S(N)(=O)=O)cc4)cnc3[nH]2)c1` had a melting point of 216 to 218 °C.
Take `CCCCCCCCCC(=O)OC1CCC2(CC(=O)N(CCCCN3CCN(c4nsc5ccccc45)CC3)C(=O)C2)C1` (centres undefined): the melting point fell in the range of 117 to 119 °C.
As for `N[C@@H]1C[C@H]2c3ccccc3-c3cccc(c32)NC1=O` (relative stereo), the melting point was in the range of 104 to 107 °C.
In the case of `O=c1[nH]c2ccccc2c2ccc3nc(Nc4c(Cl)cccc4Cl)[nH]c3c12` it was over 300 °C.
The same measure for `CCCCCCC1=C(O)C(=O)CO1`: 51 to 52 °C; for `COC(=O)c1ccc(=O)n(CCNC(=O)c2ccccc2)c1`: 190 to 191 °C.
For `COc1cc(C(=O)N2CCC(CCN3CCC(=C(c4ccccc4)c4ccccc4)CC3)(c3ccc(Cl)c(Cl)c3)C2)cc(OC)c1OC` (centres undefined), the melting point was in the range of 90 to 94 °C.
Consider `COc1ccc(S(=O)(=O)NC(=O)c2ccc(C(=O)NCCO)nc2)cc1`, for which the melting point lay in the range of 221 to 223 °C.
In the case of `Cc1c(CC(=O)O)c2cc(OCc3ccc4ccccc4n3)ccc2n1C` it was 186 to 188 °C; in that of `COCN1C(C)=C(C(=O)O)[C@H](c2cccc([N+](=O)[O-])c2)C(C(=O)OCOC(=O)C(C)(C)C)=C1C`, 84 to 85 °C; in that of `Cc1csc(C#CCCn2nc3ccccc3n2)n1`, 78 to 80 °C.
With `CN(C)c1ccc(C(NCCO)C(O)c2ccccc2)cc1` (centres undefined), the melting point was 147 to 148 °C.
The compound `CCOC(=O)c1ccc(N2CCC(NC(=O)OC(C)(C)C)CC2)nc1` registered a melting point of 140 to 142 °C.

The values above are taken from a melting point compilation (Tetko et al.; mined from patent text by program, amines drawn as free bases though some values may be those of a salt).
